# In patent US20070173462A1, “Treatment of diseases associated with the use of antibiotics” (Optimer Pharmaceuticals, Inc., priority 2004, published 2007):
# Legend:
# Type in all cases: cell-based
# [1] = tested on: Other Clostridium sp.; experiment: microbe, parasite or virus in culture; settings: Clostridium; clinical isolates, n=11
# [2] = tested on: C. difficile, C. perfringens and C. sordellii; experiment: organism not typed
# [3] = tested on: Bacteroides fragilis group; experiment: microbe, parasite or virus in culture; settings: Bacteroides fragilis; clinical gastrointestinal isolates, n=54
# [4] = tested on: C. ramosum; experiment: microbe, parasite or virus in culture; settings: Thomasclavelia ramosa; clinical isolates, n=10
# [5] = tested on: Stephylococcus sp.; experiment: organism not typed; settings: clinical gastrointestinal isolates, n=19
# [6] = tested on: C. sordellii; experiment: microbe, parasite or virus in culture; settings: clinical isolates, n=5
smiles,measurement,setting,value
CCc1c(Cl)c(O)c(Cl)c(O)c1C(=O)O[C@H]1[C@H](O)[C@H](OC)[C@H](OC/C2=C\C=C\C[C@H](O)/C(C)=C/[C@H](CC)C(O[C@@H]3OC(C)(C)[C@@H](OC(=O)C(C)C)[C@H](O)[C@@H]3O)/C(C)=C/C(C)=C/C[C@@H](C(C)O)OC2=O)O[C@@H]1C (stereo partly shown) [Compound I],MIC50,[1],32 µg/mL
same,MIC90,[1],1020 µg/mL
same,MIC90,[2],0.062 to 0.25 µg/mL
same,MIC50,[3],512 µg/mL
same,MIC90,[3],> 1020 µg/mL
same,MIC50,[4],> 1020 µg/mL
same,MIC90,[4],> 1020 µg/mL
same,MIC50,[5],0.5 µg/mL
same,MIC90,[5],1 µg/mL
same,Range (MIC),[5],0.25-2 ^ μg/mL
same,MIC50,[6]; Paraclostridium sordellii,0.062 µg/mL
same,MIC90,[6]; Paraclostridium sordellii,0.062 µg/mL
same,Range (MIC),[6],0.062 µg/mL
